T/C data for 24 compounds are collected here from PubChem BioAssay AID330 (DTP/NCI, 2004).

This experiment concerns P388 leukemia ip, CD2F1 mice, survival T/C. The experiment is described as follows: NCI In Vivo Anticancer Drug Screen. Data for tumor model P388 Leukemia (intraperitoneal) in CD2F1 (CDF1) mice. To be noted: endpoint: median survival time, higher = longer survival. A digest of the protocol: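 Mice carrying the transplanted tumor received test compound or vehicle. Survival was recorded in each group, and the value is the treated-group measurement divided by that of the vehicle-treated control group.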

The mark [1] stands for this setting: dose: 12.5 mg/kg/injection, schedule: Q01DX009 (ip), vehicle: Klucel (hydroxypropylcellulose) (HPC).
The mark [2] stands for this setting: dose: 25.0 mg/kg/injection, schedule: Q01DX009 (ip), vehicle: Klucel (hydroxypropylcellulose) (HPC).
The mark [3] stands for this setting: dose: 50.0 mg/kg/injection, schedule: Q01DX009 (ip), vehicle: Klucel (hydroxypropylcellulose) (HPC).
The mark [4] stands for this setting: dose: 60.0 mg/kg/injection, schedule: Q01DX005 (ip), vehicle: saline with Tween-80.
Where [5] appears, read: dose: 120.0 mg/kg/injection, schedule: Q01DX005 (ip), vehicle: saline with Tween-80.
[6] abbreviates: dose: 240.0 mg/kg/injection, schedule: Q01DX005 (ip), vehicle: saline with Tween-80.
Where [7] appears, read: dose: 100.0 mg/kg/injection, schedule: Q01DX009 (ip), vehicle: Klucel (hydroxypropylcellulose) (HPC).
[8] abbreviates: dose: 200.0 mg/kg/injection, schedule: Q04DX003 (ip), vehicle: Klucel (hydroxypropylcellulose) (HPC).
Where [9] appears, read: dose: 60.0 mg/kg/injection, schedule: Q01DX005 (ip), vehicle: Klucel (hydroxypropylcellulose) (HPC).
Setting [10] is: dose: 120.0 mg/kg/injection, schedule: Q01DX005 (ip), vehicle: Klucel (hydroxypropylcellulose) (HPC).
The mark [11] stands for this setting: dose: 50.0 mg/kg/injection, schedule: Q01DX009 (ip), vehicle: saline with Tween-80.
Setting [12] is: dose: 100.0 mg/kg/injection, schedule: Q01DX009 (ip), vehicle: saline with Tween-80.
Setting [13] is: dose: 200.0 mg/kg/injection, schedule: Q01DX009 (ip), vehicle: saline with Tween-80.
[14] abbreviates: dose: 25.0 mg/kg/injection, schedule: Q01DX009 (ip), vehicle: saline.
The mark [15] stands for this setting: dose: 50.0 mg/kg/injection, schedule: Q01DX009 (ip), vehicle: saline.
Setting [16] is: dose: 100.0 mg/kg/injection, schedule: Q01DX009 (ip), vehicle: saline.
Where [17] appears, read: dose: 50.0 mg/kg/injection, schedule: Q01DX005 (ip), vehicle: Klucel (hydroxypropylcellulose) (HPC).
The mark [18] stands for this setting: dose: 100.0 mg/kg/injection, schedule: Q01DX005 (ip), vehicle: Klucel (hydroxypropylcellulose) (HPC).
[19] abbreviates: dose: 200.0 mg/kg/injection, schedule: Q01DX009 (ip), vehicle: saline.

Values joined by “and” are separate entries in the source; they are usually repeats but may differ in a detail not shown here. Equal values may be shown once. Inconclusive results and toxic doses are left out. Peptide text beside a SMILES is read from it. * marks the point of attachment. X13 = CC(C)CC(NN)C(=O)*

Take `O=C(CCc1ccc(O)cc1)ON1C(=O)CCC1=O`: the T/C is, setting by setting: under setting [1], 108 % of control; under setting [2], 109 % of control; under setting [3], 104 % of control.

Take `O=C(CCCl)Nc1cccc(CCC(=O)c2ccccc2NC(=O)CCCl)c1`: the T/C reads like this: under setting [4], 89 % of control; under setting [5], 93 % of control; under setting [6], 88 % of control.

On to `NC(=S)N/N=C\c1ncccc1OCc1cccc(N)c1`, for which the T/C by setting is: (dose: 12.5 mg/kg/injection, schedule: Q01DX009 (ip), vehicle: distilled water + Tween-80) 122 % of control; (dose: 12.5 mg/kg/injection, schedule: Q01DX009 (ip), vehicle: other) 111 % of control; (dose: 25.0 mg/kg/injection, schedule: Q01DX009 (ip), vehicle: other) 120 % of control and 124 % of control; (dose: 200.0 mg/kg/injection, schedule: Q01DX009 (ip), vehicle: distilled water + Tween-80) 116 % of control; (dose: 200.0 mg/kg/injection, schedule: Q01DX009 (ip), vehicle: other) 152 % of control; (dose: 400.0 mg/kg/injection, schedule: Q01DX009 (ip), vehicle: distilled water + Tween-80) 100 % of control.

With `CCCCCCCCCCCCCCCC(=O)N(CCC#N)C(C)(C)CCC(C)(C)N(CCC#N)C(=O)CCCCCCCCCCCCCCC`, the T/C runs as follows: under setting [1], 99 % of control; (dose: 12.5 mg/kg/injection, schedule: Q04DX003 (ip), vehicle: Klucel (hydroxypropylcellulose) (HPC)) 88 % of control; under setting [2], 98 % of control; (dose: 25.0 mg/kg/injection, schedule: Q04DX003 (ip), vehicle: Klucel (hydroxypropylcellulose) (HPC)) 88 % of control; under setting [3], 97 % of control; under setting [7], 91 % of control. Besides, the T/C reads like this: (dose: 200.0 mg/kg/injection, schedule: Q01DX009 (ip), vehicle: Klucel (hydroxypropylcellulose) (HPC)) 91 % of control; under setting [8], 94 % of control.

Regarding `CC[N+](CC)=c1ccc2nc3c(cc(Nc4ccccc4)c4ccccc43)oc-2c1.[Cl][Zn][Cl]`, the T/C by setting is: under setting [9], 98 % of control; under setting [10], 107 % of control.

Regarding `C=CC(CO)N1CC1` (configuration not stated), the T/C is, setting by setting: (dose: 0.78 mg/kg/injection, schedule: Q01DX009 (ip), vehicle: saline) 108 % of control; (dose: 1.56 mg/kg/injection, schedule: Q01DX009 (ip), vehicle: saline) 108 % of control; (dose: 3.13 mg/kg/injection, schedule: Q01DX009 (ip), vehicle: saline) 108 % of control.

With `O=c1ccn2c(n1)SC(c1ccccc1)C2` (configuration not stated), the T/C reads like this: under setting [11], 100 % of control; under setting [12], 98 % of control; under setting [13], 100 % of control.

As for `CC(C)CC(NN)C(=O)NC(CCCN=C(N)N)C(=O)NC(CCCN=C(N)N)C(=O)NC(C)C(=O)NC(CO)C(=O)NC(C(=O)NC(C)C(=O)O)C(C)C` (configuration not stated) (X13-RRASVA-OH; configuration not given here), the T/C (dose: 4.5 mg/kg/injection, schedule: Q01DX009 (ip), vehicle: Klucel (hydroxypropylcellulose) (HPC)) was 101 % of control; the T/C (dose: 9.0 mg/kg/injection, schedule: Q01DX009 (ip), vehicle: Klucel (hydroxypropylcellulose) (HPC)) is 94 % of control; the T/C (dose: 18.0 mg/kg/injection, schedule: Q01DX009 (ip), vehicle: Klucel (hydroxypropylcellulose) (HPC)) was 98 % of control; the T/C (dose: 36.0 mg/kg/injection, schedule: Q01DX009 (ip), vehicle: Klucel (hydroxypropylcellulose) (HPC)) was 96 % of control.

Turning to `C/C(=C\CC1C(=O)N(c2ccccc2)N(c2ccccc2)C1=O)CO`, the T/C runs as follows: under setting [9], 100 % of control; under setting [10], 100 % of control; (dose: 240.0 mg/kg/injection, schedule: Q01DX005 (ip), vehicle: Klucel (hydroxypropylcellulose) (HPC)) 91 % of control.

Regarding `O=C1c2ccccc2C(=O)N1CCS(=O)(=O)O`, the T/C is 100 % of control (dose: 12.5 mg/kg/injection, schedule: Q01DX009 (ip), vehicle: saline); 104 % of control under setting [14]; 100 % of control under setting [15]; 98 % of control under setting [16].

Consider `CCC1C(=O)COC1=O` (configuration not stated), for which the T/C is, setting by setting: under setting [17], 99 % of control; under setting [18], 99 % of control; (dose: 200.0 mg/kg/injection, schedule: Q01DX005 (ip), vehicle: Klucel (hydroxypropylcellulose) (HPC)) 99 % of control.

Consider `[C-]#[N+]C1(c2ccccc2)C2CC3CC(C2)CC1C3` (configuration not stated), for which the T/C (dose: 100.0 mg/kg/injection, schedule: Q04DX003 (ip), vehicle: Klucel (hydroxypropylcellulose) (HPC)) is 106 % of control; the T/C under setting [8] was 100 % of control; the T/C (dose: 400.0 mg/kg/injection, schedule: Q04DX003 (ip), vehicle: Klucel (hydroxypropylcellulose) (HPC)) was 106 % of control.

With `C[N+]1(CC(=O)O)C2CCC1CC(O)C2` (configuration not stated), the T/C reads like this: under setting [14], 108 % of control; under setting [15], 98 % of control and 100 % of control; under setting [16], 101 % of control; under setting [19], 101 % of control and 96 % of control.

Consider `NS(=O)(=O)c1cccnc1Nc1ccc(Cl)c(Cl)c1`, for which the T/C under setting [15] is 86 % of control, the T/C under setting [16] is 93 % of control and the T/C under setting [19] was 101 % of control.

On to `[CH2+][B-]1(C)n2cc(Br)c[n+]2[B-](C)(C)[n+]2cc(Br)cn21`, for which the T/C is 102 % of control under setting [4], 103 % of control under setting [5] and 103 % of control under setting [6].

Regarding `COC(=O)C1=C(\OC)c2c(ccc(OC)c2OC)C(=O)N2CCc3cc4c(cc3\C2=C\1C(=O)OC)OCO4`, the T/C (dose: 50.0 mg/kg/injection, schedule: Q04DX002 (ip), vehicle: saline with Tween-80) was 103 % of control; the T/C (dose: 100.0 mg/kg/injection, schedule: Q04DX002 (ip), vehicle: saline with Tween-80) was 105 % of control; the T/C (dose: 200.0 mg/kg/injection, schedule: Q04DX002 (ip), vehicle: saline with Tween-80) is 94 % of control.

On to `CC1=NOC(=O)/C1=C/c1ccccc1C`, for which the T/C (dose: 50.0 mg/kg/injection, schedule: Q01DX005 (ip), vehicle: saline with Tween-80) was 104 % of control and the T/C (dose: 100.0 mg/kg/injection, schedule: Q01DX005 (ip), vehicle: saline with Tween-80) was 104 % of control.

Turning to `CC(C)C(C(=O)O)N(C(=O)CN)C(=O)Cc1ccccc1` (configuration not stated), the T/C under setting [11] is 95 % of control, the T/C under setting [12] is 93 % of control and the T/C under setting [13] was 93 % of control.

In the case of `Cn1c(O)c(C2=NC(C(=O)O)CS2)c(=O)n(C)c1=O` (configuration not stated), the T/C is 100 % of control (dose: 60.0 mg/kg/injection, schedule: Q01DX005 (ip), vehicle: saline); 101 % of control (dose: 120.0 mg/kg/injection, schedule: Q01DX005 (ip), vehicle: saline); 101 % of control (dose: 240.0 mg/kg/injection, schedule: Q01DX005 (ip), vehicle: saline).

Take `CC(=O)N(c1ccccc1)c1ccccc1[N+](=O)[O-]`: the T/C by setting is: under setting [15], 87 % of control; under setting [16], 86 % of control; under setting [19], 86 % of control.

On to `O=C1NC(=O)C2C1C1C(=O)NC(=O)C21` (configuration not stated), for which the T/C runs as follows: (dose: 25.0 mg/kg/injection, schedule: Q01DX009 (ip), vehicle: saline with Tween-80) 94 % of control; under setting [11], 94 % of control; under setting [12], 103 % of control.

For the compound `Cc1c(Cl)cccc1NC(=O)Nc1nccs1`, the T/C by setting is: under setting [2], 90 % of control; under setting [3], 93 % of control; under setting [7], 100 % of control.

Consider `CC1CCC(C(=O)C(Cl)Cc2ccccc2)CC1` (configuration not stated), for which the T/C was 88 % of control under setting [17] and 92 % of control under setting [18].

`NCC(O)c1ccc(O)cc1` (configuration not stated): the T/C runs as follows: under setting [15], 101 % of control and 111 % of control; under setting [16], 106 % of control and 108 % of control; under setting [19], 106 % of control and 90 % of control; (dose: 400.0 mg/kg/injection, schedule: Q01DX009 (ip), vehicle: saline) 89 % of control and 96 % of control; (dose: 600.0 mg/kg/injection, schedule: Q01DX009 (ip), vehicle: saline) 89 % of control and 90 % of control.
